Source: patent US20080299076A1, “Compunds and compositions that cause non-apoptotic cell death and uses thereof” (priority 2006, published 2008)
≈ marks a conversion by molar mass, not a printed value.

How the values were obtained:
[1] = system: vinblastine resistant CCRF-CEM derivative cells; assay: Cell death in taxol/vinblastine resistance panel; type: cell-based; details: Homo sapiens
Experimental: (§1) In certain embodiments, the sensitivity to erastin, can be tested in cell lines that are resistant to taxol and vinblastine. The sensitivity of CCRF-CEM parental, and taxol and vinblastine resistant derivative cells to erastin was tested. […] Erastin analogues can be tested to ensure their effectiveness in inducing cell death in tumor cell line which are resistant to taxol or vinblastin, or other ant-tumor agents.

[2] = system: taxol resistant CCRF-CEM derivative cells; assay: Cell death in taxol/vinblastine resistance panel; type: cell-based; details: Homo sapiens
Experimental: as §1

[3] = system: CCRF-CEM parental cells; assay: Cell death in taxol/vinblastine resistance panel; type: cell-based; details: Homo sapiens
Experimental: as §1

[4] = system: BJ-TERT/LT/ST/RAS^V12 cells; assay: Mitochondrial membrane potential (JC-1 stain); type: cell-based, human; details: after 13 hours of treatment
Experimental: In certain embodiments, there is loss of mitochondrial membrane potential in >70% of BJ-TERT/LT/ST/RAS^V12 cells after 13 hours of erastin A1 treatment (JC-1 stain), and morphological changes in mitochondria examined by EM, consistent with the notion that erastin induces mitochondrial dysfunction.

[5] = system: tumor cell lines; assay: Dose-response of panel of tumor cell lines to erastin; type: cell-based
Experimental: In certain aspects, the invention provides that erastin is lethal to tumor cells with activating mutations in proteins downstream of RAS proteins. Dose-response of 30 tumor cell lines to erastin was measured, and at least 50% inhibition of cell viability in 19 of the 30 tumor cell lines was formed. Numerous sarcoma-derived tumor cell lines were sensitive to erastin, consistent with the fact that erastin was discovered in an engineered tumor cell line created from human fibroblasts. Non-limiting examples include, HT1080 fibrosarcoma cells. HT1080 fibrosarcoma cells, which have a known activating mutation in NRAS, (Plattner, R. et al. Differential contribution of the ERK and JNK mitogen-activated protein kinase cascades to Ras transformation of HT1080 fibrosarcoma and DLD-1 colon carcinoma cells. Oncogene. 18: 1807-17 (1999)), were quite sensitive to erastin. In order to determine whether RAS-activated signaling was modulated in cell lines that respond to erastin, the phosphorylation status of ERK1/2 in 12 sarcoma cell lines with a range of sensitivities to erastin was evaluated. In certain aspects, the invention provides a non-zero correlation, such as for example, a correlation coefficient of 0.41, between ERK1/2 phosphorylation status and erastin sensitivity in these cell lines. […]

[6] = system: cytochrome c; assay: Cytochrome c release from mitochondria; type: cell-based, human; details: BJ-TERT/LT/ST/RAS^V12 cells; staurosporine 1 μM or erastin 20 μg/mL, 6 h
Experimental: BJ-TERT/LT/ST/RAS^V12 cells were seeded in polystyrene 100×20 mm dishes in 10 ml media. After overnight incubation at 37° C. with 5% CO2, the cells were treated with nothing (NT), staurosporine (ST, 1 μM) or erastin (20 μg/mL) for 6 h, washed with 10 mL ice-cold PBS and lysed by passage through a 25-gauge needle (five strokes). Cell lysates were centrifuged at 1850 rpm for 5 min at 4° C. to remove the nuclear fraction. Mitochondria were removed from the soluble cytosolic fraction by pelleting at 10,000 rpm. Supernatant and mitochondrial pellets were solubilized in SDS-PAGE loading buffer and analyzed by western blot using anti-cytochrome c and pan-VDAC antibodies and IR-dye-linked secondary antibodies. VDACs are mitochondrial proteins, so their absence in the cytosolic lane indicates effective separation of cytosol (C) from mitochondria (M). Fluorescence was detected on a LI-COR Odyssey infrared scanner.
For the cytochrome c release assay, cells were washed with 10 mL of ice-cold PBS, suspended in 120 μL of buffer (300 mM sucrose, 0.1% BSA, 10 mM HEPES, pH 7.5, 10 mM KCl, 1.5 mM MgCl2, 1 mM EGTA, 1 mM EDTA, 1 mM dithiothreitol, 2 mM phenylmethanesulfonyl fluoride and 1 protease inhibitor tablet (Roche)) and incubated on ice for 15 min. […] Supernatant and mitochondrial pellets were solubilized in SDS-PAGE loading buffer and analyzed by western blotting.

[7] = system: BJ-DRD cells; assay: Alamar Blue viability assay; type: cell-based; details: Homo sapiens; BJ-DRD (+RAS)
Text: The engineered tumor cells make use of dominantly acting viral oncoproteins (LT and ST). These viral proteins are involved in cell transformation in specific forms of cancer, namely simian virus 40-induced malignant mesothelioma^134 and other viral oncogenes (E6 and E7) are involved in human papillomavirus-induced cervical carcinoma^135, and have been used to disrupt p53 and pRB function to transform cells in vitro and in vivo^136-138. The selectivity of erastin and the other compounds were further established in a cell line expressing dominant negative inhibitors of p53 and pRB not derived from viral elements. This cell line expresses (i) a truncated form of p53 (p53DD) that disrupts the tetramerization of endogenous p53, (ii) a CDK4^R24C mutant resistant to inhibition by p16INK4A and p15INK4B (the major negative regulators of CDK4) and (iii) cyclin D1. The effects of these RAS^V12-selective compounds at a range of concentrations were tested in these cells, BJ-TERT/p53^DD/CDK4^R24C/D1/ST/RAS^V12 (named BJ-DRD) cells. […] Thus, these compounds (including erastin) are effective in tumor cells transformed without viral proteins (other than ST).
Alamar Blue metabolism: 10% Alamar Blue was added to assay plates, which were then incubated for an additional 16 hours. Red fluorescence, resulting from reduction of Alamar Blue, was detected on a Victor3 platereader (ex: 530, em: 590).
Table 2. […]

CCOc1ccccc1-n1c(C(C)N2CCN(C(=O)COc3ccc(Cl)cc3)CC2)nc2ccccc2c1=O (centres unmarked) [erastin, 2-(1-{4-[2-(4-Chloro-phenoxy)-acetyl]-piperazin-1-yl}-ethyl)-3-(2-ethoxy-phenyl)-3H-quinazolin-4-one]
IC50 [1]: 8 µM
IC50 [2]: 7 µM
IC50 [3]: 11 µM
cells with loss of mitochondrial membrane potential [4]: > 70%
number of cell lines with at least 50% inhibition of viability ([5]; of 29 tumor cell lines): 18
number of cell lines with at least 50% inhibition of cell viability ([5]; of 30 tumor cell lines): 19
Cytochrome c release from mitochondria [6]: does not induce cytochrome c release
IC50 [7]: 2.5 µg/mL (≈ 4.57 µM)
